Assay results: patent publication US11299715B2, “Use of iNOS inhibitors to increase viral yield in culture” (priority 2013, dated 2022)

Test system: d27-1/GFP HSV-1
Test: Effect of valproic acid pretreatment on d27-1/GFP HSV-1 viral titer in V27 cells
Assay type: cell-based
Protocol: Valproic acid (Sigma-P4543) was dissolved to 1 M concentration in water. V27 cells were seeded into six well plates the day prior to infection at 6×10^5 cells/well. […] This was vortexed well and added to the wells. Plates were incubated for six hours, aspirated and infectious HSV-1 d27-1 stock added at MOI 0.15 (=cell seed density×0.15/pfu titer of HSV stock) per 1 ml of DMEM (no additives).
1 ml of infectious inoculum was added per well and incubated for 1-2 hours at 37° C., 5% CO2 incubator after which time 1.5 ml of DMEM-10% FBS was added. The plates were returned to the incubator for 70-74 hours. Free media was harvested, vortexed, and centrifuged at 1,100×g for 10 minutes at 4° C. Supernatant was transferred to a new dispensing tube, vortexed, and aliquoted. Stocks were frozen at −80° C.
V27 cells were seeded into six well plates the day prior to infection at 6×10^5 cells/well and the next day, different concentrations of VA were added to wells. Plates were incubated for 6 hrs, aspirated and ⅖ vol of media containing infectious HSV-1 d27-1 stock was added and incubated for 1-2 hours at 37° C., […] after which time ⅗ vol of DMEM 10% FBS media was added. The cultures were returned to the incubator and supernatant was harvested after 70-74 hours.

Compound: CCCC(CCC)C(=O)O [VA, valproic acid]
- titer of d27-1/GFP HSV-1 compared to untreated control (VA 5 mM, 6 hrs pretreatment): slightly elevated
- titer of d27-1/GFP HSV-1 compared to untreated control (VA concentrations below and above 5 mM, pretreatment): inhibitory effect
